Source: patent US6962920B2, “Pyrimidine derivatives and methods of making and using these derivatives” (Duquesne University of the Holy Ghost, priority 1992, dated 2005)

target: T1, Tg DHFR (Toxoplasma gondii, UniProt Q07422); experiment: biochemical; assay type: biochemical; conditions: Table 7; read-out: Tg DHFR IC50
T1 sequence (Q07422 1-610): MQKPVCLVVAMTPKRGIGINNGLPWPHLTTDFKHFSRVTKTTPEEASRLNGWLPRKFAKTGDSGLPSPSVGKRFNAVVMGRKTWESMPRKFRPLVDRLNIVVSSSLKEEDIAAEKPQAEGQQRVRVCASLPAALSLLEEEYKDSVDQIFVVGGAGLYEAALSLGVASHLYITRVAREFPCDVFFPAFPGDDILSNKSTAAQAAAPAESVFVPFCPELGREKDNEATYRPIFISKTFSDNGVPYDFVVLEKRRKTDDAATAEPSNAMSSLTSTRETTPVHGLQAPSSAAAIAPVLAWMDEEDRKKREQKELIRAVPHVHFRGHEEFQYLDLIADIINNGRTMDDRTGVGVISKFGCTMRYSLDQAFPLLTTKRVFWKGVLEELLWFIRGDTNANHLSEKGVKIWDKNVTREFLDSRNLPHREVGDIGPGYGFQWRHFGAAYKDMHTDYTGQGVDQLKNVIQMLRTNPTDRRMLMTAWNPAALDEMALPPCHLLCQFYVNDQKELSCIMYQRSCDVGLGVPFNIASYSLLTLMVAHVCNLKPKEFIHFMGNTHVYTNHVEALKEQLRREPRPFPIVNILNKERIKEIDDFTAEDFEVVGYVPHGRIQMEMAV
Procedure: (§1) The selectivity ratio is a measure of the selectivity of a compound for Pc DHFR or Tg DHFR and is expressed as the IC50 value of the DHFR from rate liver (RL) divided by the IC50 value of either the Pc DHFR or the Tg DHFR, depending on which organism the compounds are being tested against. For example, the selectivity ratio of a compound is calculated by the following formula: [formula]

Going from `COc1ccc(OC)c(NCc2cnc3[nH]c(N)nc(N)c2-3)c1` [Compound 4, 2,4-diamino-5-[(2′,5′-dimethoxyanilino)methyl]pyrrolo[2,3-d]pyrimidine] to `CCOc1ccc(OCC)c(NCc2c[nH]c3nc(N)nc(N)c23)c1` [Compound 5, 2,4-diamino-5-[(2′,5′-diethoxyanilino)methyl]pyrrolo[2,3-d]pyrimidine], the IC50 rises from 1.7 µM to 5.3 µM (3.1-fold). The first is the more potent here.

Molecule `Nc1nc(N)c2c(CNc3ccc(Cl)c(Cl)c3)c[nH]c2n1` [Compound 6, 2,4-diamino-5-[(3′,4′dichloroanilino)methyl]pyrrolo[2,3-d]pyrimidine] has an IC50 of 1.4 µM.

same assay, conditions: Table 16; read-out: Tg DHFR IC50

`Nc1nc(N)c2c(CNc3ccccc3Oc3ccccc3)coc2n1` [Compound 165, 2,4-Diamino-5-[(2′-phenoxyanilino)methyl]furo[2,3-d]pyrimidine] and `Nc1nc(N)c2c(CNc3ccc(Oc4ccccc4)cc3)coc2n1` [Compound 166, 2,4-Diamino-5-[(4′-phenoxyanilino)methyl]furo[2,3-d]pyrimidine] cannot be ordered by IC50: > 12 µM for the first, 32.4 µM for the second.

`CN(Cc1coc2nc(N)nc(N)c12)c1ccc(Cl)c(Cl)c1` [Compound 171, 2,4-Diamino-5-[(N-methyl-3′,4′-dichloroanilino)methyl]furo[2,3-d]pyrimidine] and `COc1cccc(NCc2coc3nc(N)nc(N)c23)c1` [Compound 175, 2,4-Diamino-5-[(3′-methoxyanilino)methyl]furo[2,3-d]-pyrimidine] cannot be ordered by IC50: > 27 µM for the first, > 31.3 µM for the second.

same assay, conditions: Table 25; read-out: Inhibitor Concentrations (IC50) tgDHFR

`Nc1nc(N)c2c(CNc3ccccc3Oc3ccccc3)coc2n1` [Compound 165, 2,4-Diamino-5-[(2′-phenoxyanilino)methyl]furo[2,3-d]pyrimidine] and `Nc1nc(N)c2c(CNc3ccc(Oc4ccccc4)cc3)coc2n1` [Compound 166, 2,4-Diamino-5-[(4′-phenoxyanilino)methyl]furo[2,3-d]pyrimidine] cannot be ordered by IC50: > 12 µM for the first, 32.4 µM for the second.

`CN(Cc1coc2nc(N)nc(N)c12)c1ccc(Cl)c(Cl)c1` [Compound 171, 2,4-Diamino-5-[(N-methyl-3′,4′-dichloroanilino)methyl]furo[2,3-d]pyrimidine] and `COc1cccc(NCc2coc3nc(N)nc(N)c23)c1` [Compound 175, 2,4-Diamino-5-[(3′-methoxyanilino)methyl]furo[2,3-d]-pyrimidine] cannot be ordered by IC50: > 27 µM for the first, > 31.3 µM for the second.

target: T2, RL DHFR (Rattus norvegicus, UniProt Q920D2); experiment: Inhibition of DHFR from rat liver; assay type: biochemical; conditions: Table 7; read-out: RL DHFR IC50
T2 construct: Toxoplasmosis gondii (Tg) and rat liver (RL); from tissue; host or cells: rat liver
T2 sequence (Q920D2 1-187): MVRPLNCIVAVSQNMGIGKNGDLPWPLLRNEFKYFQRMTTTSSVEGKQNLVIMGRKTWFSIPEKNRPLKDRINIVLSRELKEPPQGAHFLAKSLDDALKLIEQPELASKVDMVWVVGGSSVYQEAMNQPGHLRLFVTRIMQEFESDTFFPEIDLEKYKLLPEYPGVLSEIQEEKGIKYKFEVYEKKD
Procedure: as §1

Compared with `COc1ccc(OC)c(NCc2cnc3[nH]c(N)nc(N)c2-3)c1` [Compound 4, 2,4-diamino-5-[(2′,5′-dimethoxyanilino)methyl]pyrrolo[2,3-d]pyrimidine], `CCOc1ccc(OCC)c(NCc2c[nH]c3nc(N)nc(N)c23)c1` [Compound 5, 2,4-diamino-5-[(2′,5′-diethoxyanilino)methyl]pyrrolo[2,3-d]pyrimidine] is 2.2-fold lower in IC50: 156 µM for the first, 70 µM for the second. The second is the more potent here.

`Nc1nc(N)c2c(CNc3ccc(Cl)c(Cl)c3)c[nH]c2n1` [Compound 6, 2,4-diamino-5-[(3′,4′dichloroanilino)methyl]pyrrolo[2,3-d]pyrimidine] showed an IC50 of 14.4 µM.

same assay, conditions: Table 16; read-out: RL DHFR IC50

`Nc1nc(N)c2c(CNc3ccccc3Oc3ccccc3)coc2n1` [Compound 165, 2,4-Diamino-5-[(2′-phenoxyanilino)methyl]furo[2,3-d]pyrimidine] and `COc1cccc(NCc2coc3nc(N)nc(N)c23)c1` [Compound 175, 2,4-Diamino-5-[(3′-methoxyanilino)methyl]furo[2,3-d]-pyrimidine] cannot be ordered by IC50: > 12 µM for the first, > 31.3 µM for the second.

`CN(Cc1coc2nc(N)nc(N)c12)c1ccc(Cl)c(Cl)c1` [Compound 171, 2,4-Diamino-5-[(N-methyl-3′,4′-dichloroanilino)methyl]furo[2,3-d]pyrimidine] was tested, and the IC50 was > 27 µM.

same assay, conditions: Table 25; read-out: Inhibitor Concentrations (IC50) rlDHFR

`Nc1nc(N)c2c(CNc3ccccc3Oc3ccccc3)coc2n1` [Compound 165, 2,4-Diamino-5-[(2′-phenoxyanilino)methyl]furo[2,3-d]pyrimidine] and `COc1cccc(NCc2coc3nc(N)nc(N)c23)c1` [Compound 175, 2,4-Diamino-5-[(3′-methoxyanilino)methyl]furo[2,3-d]-pyrimidine] cannot be ordered by IC50: > 12 µM for the first, > 31.3 µM for the second.

`CN(Cc1coc2nc(N)nc(N)c12)c1ccc(Cl)c(Cl)c1` [Compound 171, 2,4-Diamino-5-[(N-methyl-3′,4′-dichloroanilino)methyl]furo[2,3-d]pyrimidine] was tested, and the IC50 was > 27 µM.

target: T3, Pc DHFR (Pneumocystis carinii, UniProt P16184); experiment: biochemical; conditions: Table 7; read-out: Pc DHFR IC50
T3 sequence (P16184 1-206): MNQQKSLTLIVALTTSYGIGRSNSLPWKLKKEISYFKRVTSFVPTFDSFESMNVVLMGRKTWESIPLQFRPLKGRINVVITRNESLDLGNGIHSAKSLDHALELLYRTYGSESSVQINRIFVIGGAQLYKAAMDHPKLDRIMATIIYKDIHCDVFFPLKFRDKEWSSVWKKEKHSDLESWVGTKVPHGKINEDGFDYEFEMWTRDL

`Nc1nc(N)c2c(CNc3ccc(Cl)c(Cl)c3)c[nH]c2n1` [Compound 6, 2,4-diamino-5-[(3′,4′dichloroanilino)methyl]pyrrolo[2,3-d]pyrimidine] and `CCOc1ccc(OCC)c(NCc2c[nH]c3nc(N)nc(N)c23)c1` [Compound 5, 2,4-diamino-5-[(2′,5′-diethoxyanilino)methyl]pyrrolo[2,3-d]pyrimidine] cannot be ordered by IC50: 35.3 µM for the first, > 21 µM for the second.

same assay, conditions: Table 16; read-out: Pc DHFR IC50

`Nc1nc(N)c2c(CNc3ccccc3Oc3ccccc3)coc2n1` [Compound 165, 2,4-Diamino-5-[(2′-phenoxyanilino)methyl]furo[2,3-d]pyrimidine] and `COc1cccc(NCc2coc3nc(N)nc(N)c23)c1` [Compound 175, 2,4-Diamino-5-[(3′-methoxyanilino)methyl]furo[2,3-d]-pyrimidine] cannot be ordered by IC50: > 12 µM for the first, > 31.3 µM for the second.

Work on `CN(Cc1coc2nc(N)nc(N)c12)c1ccc(Cl)c(Cl)c1` [Compound 171, 2,4-Diamino-5-[(N-methyl-3′,4′-dichloroanilino)methyl]furo[2,3-d]pyrimidine] yielded an IC50 of 44.8 µM.

same assay, conditions: Table 25; read-out: Inhibitor Concentrations (IC50) pcDHFR

`Nc1nc(N)c2c(CNc3ccccc3Oc3ccccc3)coc2n1` [Compound 165, 2,4-Diamino-5-[(2′-phenoxyanilino)methyl]furo[2,3-d]pyrimidine] and `COc1cccc(NCc2coc3nc(N)nc(N)c23)c1` [Compound 175, 2,4-Diamino-5-[(3′-methoxyanilino)methyl]furo[2,3-d]-pyrimidine] cannot be ordered by IC50: > 12 µM for the first, > 31.3 µM for the second.

With `CN(Cc1coc2nc(N)nc(N)c12)c1ccc(Cl)c(Cl)c1` [Compound 171, 2,4-Diamino-5-[(N-methyl-3′,4′-dichloroanilino)methyl]furo[2,3-d]pyrimidine] the IC50 was 44.8 µM.
